A short description of data set [1]: Cytotoxicity against mock-infected BHK21 cells assessed as reduction in cell viability after 72 hrs by MTT assay. To be noted: hamster. Type of data set: cell-based, Mesocricetus auratus, BHK-21. For orientation: Tetrazolium dyes change colour on reduction, which living cells bring about.
The next data set relates to Yellow fever virus. The data set can be described thus: Antiviral activity against Yellow fever virus 17D infected in BHK21 cells assessed as inhibition of virus induced cytopathogenicity after 3 to 4 days by MTT assay. Type of data set: functional, cell-based. To be noted: BHK-21.
Data set [2] has as its system Mammalian orthoreovirus 1. The experiment in a line: Antiviral activity against Reovirus type-1 3651 infected in BHK21 cells assessed as inhibition of virus induced cytopathogenicity after 3 to 4 days by MTT assay. The following applies: Mammalian orthoreovirus 1, 3651, BHK-21. Type of data set: functional, cell-based.
Data set [3] is described as follows: Cytotoxicity against mock-infected african green monkey Vero 76 cells assessed as reduction in cell viability after 48 to 96 hrs by MTT assay. The following applies: chlorocebus sabaeus, mock-infected Vero 76 cells. Type of data set: cell-based.
For another data set, the system named is Coxsackievirus B2. The experiment in a line: Antiviral activity against CVB-2 infected in Vero 76 cells after 3 days by crystal violet staining based plaque reduction assay. To be noted: Enterovirus B, Vero 76, 72 h. Type of data set: functional, organism-based. For orientation: Plaques are areas of infected cells; plaque reduction assays count them against a control.

Another data set deals with Poliovirus 1. The experiment in a line: Antiviral activity against Human poliovirus 1 strain Sabin infected in Vero 76 cells after 2 days by crystal violet staining based plaque reduction assay. Type of data set: functional, organism-based. To be noted: Enterovirus C, Vero 76, 48 h.
Data set [4] relates to Respiratory syncytial virus. The data set can be described thus: Antiviral activity against Respiratory syncytial virus A2 infected in Vero 76 cells after 5 days by crystal violet staining based plaque reduction assay. Type of data set: functional, organism-based. To be noted: human respiratory syncytial virus, A2, Vero 76, 120 h.
In data set [5] the test system is Vesicular stomatitis virus. The data set can be described thus: Antiviral activity against Vesicular stomatitis virus Indiana infected in Vero 76 cells after 2 days by crystal violet staining based plaque reduction assay. To be noted: Vero 76, 48 h. Type of data set: functional, organism-based.
The subject of the next data set is Vaccinia virus. The data set can be described thus: Antiviral activity against Vaccinia virus Elstree infected in Vero 76 cells after 3 days by crystal violet staining based plaque reduction assay. Type of data set: functional, organism-based. The following applies: Orthopoxvirus vaccinia, Vero 76, 72 h.
Data set [6] in a line: Cytotoxicity against mock-infected MDBK cells assessed as reduction in cell viability after 72 hrs by MTT assay. Type of data set: cell-based, Bos taurus. The following applies: cattle.
The nature of data set [7]: Antiviral activity against BVDV NADL infected in MDBK cells assessed as inhibition of virus induced cytopathogenicity after 3 to 4 days by MTT assay. To be noted: Bovine viral diarrhea virus isolates and strains. Type of data set: functional, cell-based, Bovine viral diarrhea virus 1-NADL. In general terms: Damage to the host cells serves as the signal in cytopathic effect assays.

Data set [8] can be described thus: Selectivity index, ratio of CC50 for MDBK cells to EC50 for […] NADL infected in MDBK cells.

Structures are written as SMILES.

As a reminder, the CC50 is the concentration at which the toxic effect on the cells reaches its halfway point. The term EC50 denotes the concentration needed to bring the measured effect to its halfway point.

As to `CSc1ccc(-c2nc3cc4cccnc4c(Cl)c3[nH]2)cc1`, the CC50 at 72 h in data set [1] and in [6] was over 100 µM in each case. Further, the EC50 is over 100 µM in the data set with Yellow fever virus; 100 µM in data set [2]; over 100 µM in the data set with Coxsackievirus B2; over 100 µM with Poliovirus 1; over 100 µM in [4]; over 100 µM in data set [5]. Besides, the EC50 is over 100 µM with Vaccinia virus and 6.1 µM in [7]. In addition, the CC50 in data set [3] was over 100 µM. In data set [8], the “Ratio CC50/EC50” value is given as over 16.4.
Turning to `Fc1ccc(-c2nc3cc4cccnc4cc3[nH]2)c(F)c1`, the CC50 at 72 h in [1] and in data set [6] was over 100 µM each time. The EC50 with Yellow fever virus was over 100 µM; in data set [2], 10 µM; in the data set with Coxsackievirus B2 it was 35 µM; in the data set with Poliovirus 1 it was over 100 µM; in [4] it was over 58 µM; in data set [5] it was over 100 µM. The results for the EC50 (in the data set on Vaccinia virus; in data set [7]) were over 100 µM and 6 µM, respectively. Further, the CC50 in data set [3] is over 100 µM. Further, the “Ratio CC50/EC50” value in data set [8] is given as over 16.7.
For the compound `N#Cc1ccc(/C=N/c2cc3cccnc3c(Cl)c2N)cc1`, the EC50 in [7] stood at 2 µM.
`COc1nc2cc3cccnc3c(Cl)c2nc1C(C)C`: the EC50 in data set [7] is over 100 µM.
Take `O=c1cnn([C@@H]2O[C@H](CO)[C@@H](O)[C@H]2O)c(=O)[nH]1` [6-AZAURIDINE]: in [3], the CC50 was over 12.5 µM.
Regarding `CC(C)c1nc2c(Cl)c3ncccc3cc2[nH]c1=O`, the EC50 in [7] is over 100 µM.
As for `CCn1c(=O)c(-c2ccccc2)nc2c(Cl)c3ncccc3cc21`, in data set [7], the EC50 was over 100 µM.
On the same count and under the same terms, the result for `COc1ccc(-c2nc3cc(/C(C)=N/NC(N)=S)ccc3[nH]2)c(OC)c1` reads 0.002 µM; that for `CC(=O)c1ccc(-c2nc3cccnc3[nH]2)cc1`, over 100 µM; that for `O=c1[nH]c2cc3cccnc3c(Cl)c2nc1-c1cccs1`, 5 µM.
`NC(=O)c1ncn([C@@H]2O[C@H](CO)[C@@H](O)[C@H]2O)n1` [RIBAVIRIN]: the CC50 at 72 h in data set [6] worked out at 5 µM. Besides, in [7], the EC50 was determined as 1.3 µM. Moreover, in data set [8], the “Ratio CC50/EC50” value is recorded as 3.8.
Take `C[C@@]1(O)[C@H](O)[C@@H](CO)O[C@H]1n1ccc(N)nc1=O`: in [1], the CC50 at 72 h is over 100 µM.
As to `N#Cc1ccc(-c2nc3ccncc3[nH]2)cc1`, the EC50 in data set [7] turned out to be 9 µM.
On to `Nc1nc2c(ncn2COCCO)c(=O)[nH]1` [ACYCLOVIR], for which the CC50 in data set [3] was over 100 µM. Further, the response with Vaccinia virus was half-maximal at 1.5 µM (EC50).
`O=c1cnc2c(Cl)c3ncccc3cc2[nH]1`: the EC50 in [7] was over 100 µM.
In the case of `Cn1c(=O)c(-c2cccs2)nc2c(Cl)c3ncccc3cc21`, the 50% effective concentration (EC50) in data set [7] was 2 µM.
Consider `COc1ccc(-c2nc3cc4cccnc4c(Cl)c3n2CC2CCCCC2)cc1`, for which, in data set [6], the CC50 at 72 h worked out at 20 µM. The EC50 in [7] was 5 µM. Besides, the “Ratio CC50/EC50” value in data set [8] was determined as 4.
As for `NS(=O)(=O)c1ccc(-c2nc3cc4cccnc4c(Cl)c3[nH]2)cc1`, the CC50 at 72 h in [1] and in data set [6] was over 100 µM throughout. The EC50 was over 100 µM with Yellow fever virus; over 100 µM in data set [2]; over 100 µM with Coxsackievirus B2; 21 µM in the data set on Poliovirus 1; 18 µM in [4]; over 100 µM in [5]. Moreover, the EC50 (in the data set on Vaccinia virus; in [7]) was over 100 µM each time. The CC50 in [3] was over 100 µM.
Regarding `Clc1c2ncccc2cc2nc(-c3ccoc3)[nH]c12`, the CC50 at 72 h in data set [6] was over 100 µM. In data set [7], the EC50 was 2 µM. For the same compound, in data set [8], the “Ratio CC50/EC50” value is listed as over 50.
For `C[C@@]1(O)[C@H](O)[C@@H](CO)O[C@H]1n1cnc2c(=O)[nH]c(N)nc21` [2'-B-METHYL-GUANOSINE], the CC50 at 72 h in data set [1] and in data set [6] was over 10 µM throughout. Further, the “Ratio CC50/EC50” value in [8] is on record as over 9.1.
As for `C#C[C@@]1(O)[C@H](O)[C@@H](CO)O[C@H]1n1ccc(N)nc1=O` [2'-ETHYNYL-D-CYTIDINE], in data set [3], the CC50 was over 100 µM. The compound further gave an EC50 with Coxsackievirus B2 of 27 µM.
With `COc1c(C)c2c(c(O)c1C/C=C(\C)CCC(=O)O)C(=O)OC2` [MYCOPHENOLIC ACID], in data set [3], the CC50 was over 12.5 µM.

For the origin of these results see ChEMBL document CHEMBL3808296, “A combined in silico/in vitro approach unveils common molecular requirements for efficient BVDV RdRp binding of linear aromatic N-polycyclic systems” (Eur J Med Chem, 2016).
